Measured values reported in patent US20250368640A1 (BIOFRONT LTD, priority 2022, published 2025).
Read-outs that look alike come from different tables or passages of the source.

Columns and labels:
[1] = test system: FLT3; test: FLT3 degradation assay (western blot, MV-411 cells); format: cell-based, human
Experimental: (§1) MV-411 cells were cultured with medium (IMDM) prior to use. Cells were then incubated with a variety of concentrations of compound. After incubation, the cells were collected and lysed. The protein concentration was determined by BCA protein assay kit from Thermo (23227). The FLT3 protein level was determined by western blots, using anti-human FLT3 monoclonal antibody from CST (3462S). Proteins were loaded into each well of the pre-casting gels and subjected to electrophoretic separation by SDS-PAGE. The protein resolved by SDS-PAGE were transferred to PVDF, blocked by 5% skim milk, and probed with anti-human FLT3 antibody or -actin antibody from CST (3700S), using standard western blotting procedure.

[2] = target: T1, HPK1 (Homo sapiens (Human), UniProt Q92918); test: HPK1 degradation assay (western blot, human PBMC); format: cell-based; conditions: for Dmax: read-out: HPK1 Dmax
Experimental: Frozen human PBMC were purchased from Shanghai OribioTech and recovered with culture medium (RMPI1640) prior to use. The cells were then incubated with a variety of concentrations of compound. After incubation, the cells were collected and lysed. The protein concentration was determined by BCA protein assay kit from Thermo (23227). The HPK1 protein level was determined by western blots, using anti-human HPK1 polyclonal antibody from CST (4472S). Proteins were loaded into each well of the pre-casting gels and subjected to electrophoretic separation by SDS-PAGE. The protein resolved by SDS-PAGE were transferred to PVDF, blocked by 5% skim milk, and probed with anti-human HPK1 antibody or β-actin antibody from CST (3700S), using standard western blotting procedure.
Target sequence in this assay (Q92918 whole entry): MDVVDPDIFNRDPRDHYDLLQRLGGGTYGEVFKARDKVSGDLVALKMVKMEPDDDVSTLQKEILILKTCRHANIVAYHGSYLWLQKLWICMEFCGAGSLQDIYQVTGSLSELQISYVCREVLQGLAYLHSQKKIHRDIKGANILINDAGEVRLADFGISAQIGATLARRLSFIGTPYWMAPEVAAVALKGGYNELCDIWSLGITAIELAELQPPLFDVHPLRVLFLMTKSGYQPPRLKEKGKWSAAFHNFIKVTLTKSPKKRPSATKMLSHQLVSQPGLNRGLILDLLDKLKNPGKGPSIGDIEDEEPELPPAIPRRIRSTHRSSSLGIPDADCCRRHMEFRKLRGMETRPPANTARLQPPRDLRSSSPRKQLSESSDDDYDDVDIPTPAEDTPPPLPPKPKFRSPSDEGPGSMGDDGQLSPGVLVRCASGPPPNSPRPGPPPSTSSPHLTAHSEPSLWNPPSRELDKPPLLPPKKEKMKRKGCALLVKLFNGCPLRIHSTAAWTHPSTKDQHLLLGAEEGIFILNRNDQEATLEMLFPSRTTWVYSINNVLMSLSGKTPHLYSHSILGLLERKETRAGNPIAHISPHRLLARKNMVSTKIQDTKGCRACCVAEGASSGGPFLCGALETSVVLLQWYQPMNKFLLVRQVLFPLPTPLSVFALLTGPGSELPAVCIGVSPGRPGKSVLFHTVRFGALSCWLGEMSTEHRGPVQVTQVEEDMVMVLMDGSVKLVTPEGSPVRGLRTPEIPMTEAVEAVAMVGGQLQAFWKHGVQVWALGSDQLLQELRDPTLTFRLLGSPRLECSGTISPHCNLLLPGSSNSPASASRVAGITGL

[3] = test system: MEK 1/2; test: MEK 1/2 degradation assay (western blot); format: cell-based, human; conditions: protein degradation, MV-411 or IMR32 cells
Experimental: MEK 1/2 Degradation Assay
as §1, with “(IMDM) and IMR32 cells were cultured with medium (MEM)” for “(IMDM)”, “anti-human MEK 1/2 polyclonal” for “anti-human FLT3 monoclonal”, “CST (9122S).” for “CST (3462S).”, “anti-human MEK1/2” for “anti-human FLT3”, “or β-actin” for “or -actin”, “CST (3700S) and COX IV antibody from CST (4850S),” for “CST (3700S),”

[4] = target: FLT3-ITD (Homo sapiens, UniProt P36888, ITD); test: FLT3-ITD enzyme inhibition assay; format: biochemical
Sequence of FLT3-ITD (P36888 whole entry, looked up, change not shown): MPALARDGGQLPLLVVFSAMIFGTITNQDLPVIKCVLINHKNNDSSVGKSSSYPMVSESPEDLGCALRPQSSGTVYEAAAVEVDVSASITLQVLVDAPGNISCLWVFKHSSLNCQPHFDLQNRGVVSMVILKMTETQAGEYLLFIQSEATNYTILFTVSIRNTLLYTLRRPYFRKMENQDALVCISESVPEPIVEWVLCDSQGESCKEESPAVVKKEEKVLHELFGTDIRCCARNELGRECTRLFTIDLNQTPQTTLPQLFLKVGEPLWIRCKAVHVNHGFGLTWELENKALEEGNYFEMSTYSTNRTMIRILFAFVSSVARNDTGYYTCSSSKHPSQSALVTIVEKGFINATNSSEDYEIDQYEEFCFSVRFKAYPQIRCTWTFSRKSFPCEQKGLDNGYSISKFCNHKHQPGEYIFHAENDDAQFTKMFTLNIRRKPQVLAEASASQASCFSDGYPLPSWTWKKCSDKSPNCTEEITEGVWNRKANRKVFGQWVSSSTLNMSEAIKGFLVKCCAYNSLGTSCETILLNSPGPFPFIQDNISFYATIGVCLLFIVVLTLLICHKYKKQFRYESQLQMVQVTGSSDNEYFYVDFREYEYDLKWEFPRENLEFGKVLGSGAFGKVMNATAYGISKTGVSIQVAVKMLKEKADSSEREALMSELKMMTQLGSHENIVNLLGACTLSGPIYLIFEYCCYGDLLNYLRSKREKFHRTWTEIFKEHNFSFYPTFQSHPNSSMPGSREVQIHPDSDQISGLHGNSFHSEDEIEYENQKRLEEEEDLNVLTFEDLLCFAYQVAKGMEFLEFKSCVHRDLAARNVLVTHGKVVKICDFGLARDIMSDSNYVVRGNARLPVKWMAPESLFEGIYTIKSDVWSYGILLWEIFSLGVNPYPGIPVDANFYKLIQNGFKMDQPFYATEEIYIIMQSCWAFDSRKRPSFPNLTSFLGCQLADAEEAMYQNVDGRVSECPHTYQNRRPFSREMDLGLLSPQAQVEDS
Experimental: FLT3-ITD Enzyme Inhibition Assay
The compound was dissolved in 100% DMSO at the concentration of 10 mM. The FLT3-ITD protein was purchased from Invitrogen (PV6191). 10 μL per well of 2.5×FLT3-ITD protein was added to assay plate containing the test compound, centrifuged at 1000 rpm for 1 minute, and then incubated at 25° C. for 10 minutes. Peptide 2 was purchased from GL Biochem (112394) and ATP was purchased from Promega (V9102). The two were added 15 μL per well mixture of 1.67× peptide 2 (final conc. is 3 μM) and ATP (final conc. is 97.2 μM), centrifuged at 1000 rpm for 1 minute, then incubated at 25° C. for 40 minutes. Then added 30 μL of stop buffer (100 mM HEPES pH7.5, 0.015% Brij-35, 0.2% Coating Reagent 3, 50 mM EDTA) to the assay plate and centrifuged at 1000 rpm for 1 minute. the product was determined. Based on the results, the IC50 value of the compound was calculated.

[5] = target: T2, Aurora A (Homo sapiens (Human), UniProt O14965); test: Aurora A degradation assay (western blot); format: cell-based; conditions: for Dmax: read-out: Aurora A Dmax
T2 sequence (O14965 whole entry): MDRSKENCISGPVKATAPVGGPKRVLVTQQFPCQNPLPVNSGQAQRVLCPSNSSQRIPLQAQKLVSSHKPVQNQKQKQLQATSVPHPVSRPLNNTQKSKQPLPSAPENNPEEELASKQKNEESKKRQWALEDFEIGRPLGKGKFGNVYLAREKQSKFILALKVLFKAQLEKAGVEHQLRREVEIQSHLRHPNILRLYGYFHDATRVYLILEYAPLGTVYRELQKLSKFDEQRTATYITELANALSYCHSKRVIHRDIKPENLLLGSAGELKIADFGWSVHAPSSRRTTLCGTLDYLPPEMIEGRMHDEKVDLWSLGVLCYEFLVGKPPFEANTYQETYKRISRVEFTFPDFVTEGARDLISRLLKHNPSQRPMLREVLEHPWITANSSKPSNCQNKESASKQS
Experimental: Aurora A Degradation Assay
as §1, with “IMR32” for “MV-411”, “cultured with medium (MEM), Huh7 cells were cultured with medium (DMEM) and HL-60 cells were culture” for “cultured”, “AURKA” for “FLT3”, “(14475S).” for “(3462S).”, “β-actin” for “-actin”, “(3700S) or COX IV antibody from CST (4850S),” for “(3700S),”

[6] = target: T1, HPK1; test: HPK1 enzyme inhibition assay (ADP-Glo); format: biochemical
Experimental: HPK1 Enzyme Inhibition Assay
The compound was dissolved in 100% DMSO at the concentration of 10 mM. The HPK1 protein was purchased from Signal Chem (M23-11G-10). 2.5 μL per well of 2×HPK1 protein was added to assay plate containing the test compound, centrifuged at 1500 rpm for 1 minute, and then incubated at 25° C. for 60 minutes. MBP protein was purchased from Signal Chem (M42-51N) and ATP was purchased from Promega (V9102). The two were added 2.5 μL per well mixture of 2×MBP (0.2 ug/ul) and ATP (20 μM), centrifuged at 1500 rpm for 1 minute, then incubated at 25° C. for 60 minutes. Then added 5 μL of ADP-Glo from Promega (V9102) to the assay plate and depleted the unconsumed ATP for 60 minutes. Then centrifuged at 1500 rpm for 1 minute and incubated at 25° C. for 60 minutes. Finally, 10 μL of the kinase assay reagent from Promega (V9102) was added to the assay plate to convert ADP to ATP, centrifuged at 1500 rpm for 1 minute, incubate at 25° C. for 40 minutes. After 40 minutes incubation, the […] was determined. Based on the results, the IC50 value of the compound was calculated.
Target sequence in this assay (Q92918 1-346 limits assumed): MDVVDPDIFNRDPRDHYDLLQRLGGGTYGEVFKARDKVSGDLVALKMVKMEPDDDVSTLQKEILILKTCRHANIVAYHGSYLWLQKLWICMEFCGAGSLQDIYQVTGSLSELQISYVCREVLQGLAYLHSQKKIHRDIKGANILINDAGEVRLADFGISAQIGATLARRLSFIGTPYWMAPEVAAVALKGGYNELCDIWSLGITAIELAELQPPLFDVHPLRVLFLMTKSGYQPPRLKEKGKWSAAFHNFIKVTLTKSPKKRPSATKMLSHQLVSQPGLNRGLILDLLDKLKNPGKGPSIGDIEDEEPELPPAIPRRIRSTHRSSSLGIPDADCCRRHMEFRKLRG

[7] = target: T2, Aurora A; test: Aurora A enzyme inhibition assay; format: biochemical
Experimental: Aurora A Enzyme Inhibition Assay
The compound was dissolved in 100% DMSO at the concentration of 10 mM. The Aurora A protein was purchased from Carna (05-101). 10 μL per well of 2.5×Aurora A protein was added to assay plate containing the test compound, centrifuged at 1000 rpm for 1 minute, and then incubated at 25° C. for 10 minutes. Peptide 21 was purchased from GL Biochem (116370) and ATP was purchased from Promega (V9102). The two were added 15 μL per well mixture of 1.67× peptide 21 (final conc. is 3 μM) and ATP (final conc. is 14.58 μM), centrifuged at 1000 rpm for 1 minute, then incubated at 25° C. for 40 minutes. Then added 30 μL of stop buffer (100 mM HEPES pH7.5, 0.015% Brij-35, 0.2% Coating Reagent 3, 50 mM EDTA) to the assay plate and centrifuged at 1000 rpm for 1 minute. the product was determined. Based on the results, the IC50 value of the compound was calculated.

[8] = protein degradation, class symbol, read-out: FLT3 DC50 (nM)/Dmax (%)
[9] = protein degradation, human PBMC, read-out: HPK1 DC50
[10] = protein degradation, human PBMC
[11] = enzyme inhibition, read-out: FLT3-ITD IC50
[12] = protein degradation, IMR32, Huh7 or HL-60 cells, read-out: Aurora A DC50
[13] = protein degradation, IMR32, Huh7 or HL-60 cells
[14] = read-out: MEK 1/2 DC50 (nM)/Dmax (%), class symbol
[15] = protein degradation, IMR32, Huh7 or HL-60 cells, class symbol, read-out: Aurora A DC50 (nM)/Dmax (%)

DC50 [1, 8]	DC50 [2, 9]	Dmax [2, 10]	DC50 ([3]; read-out: MEK 1/2 DC50)	IC50 [4, 11]	DC50 [5, 12]	IC50 [6]	IC50 [7]	SMILES	MEK 1/2 Dmax [3]	also measured
> 10000 nM	11 nM	50%	< 1 nM	23.8 nM	3 nM	12.5 nM	14.3 nM	O=C1CCC(N2Cc3ccc(N4CCC(CN5CCCN(c6cccc(-c7cnc8[nH]cc(CC(F)F)c8c7Cl)c6)C5=O)CC4)cc3C2=O)C(=O)N1 (stereo not drawn) [Example 13]	30%	Dmax [5, 13]: 70%
–	–	–	–	–	–	–	–	CCc1c[nH]c2ncc(-c3cccc(N4CCCN(CCN5CC(c6ccc7c(c6)CN(C6CCC(=O)NC6=O)C7=O)C5)C4=O)c3)c(Cl)c12 (stereo not drawn) [Example 2]	–	DC50 ([1]; read-out: FLT3 DC50 (nM)/Dmax (%), protein degradation, class symbol): > 10000 nM; DC50 ([2]; read-out: HPK1 DC50, protein degradation, human PBMC): 3 nM; Dmax [2]: 80%; DC50 [3, 14]: > 10000 nM; IC50 [4]: 4.7 nM; DC50 ([5]; read-out: Aurora A DC50 (nM)/Dmax (%), protein degradation, IMR32, Huh7 or HL-60 cells, class symbol): > 10000 nM
–	100 nM	90%	< 100 nM	–	< 20 nM	25.8 nM	–	O=C1CCC(N2Cc3cc(N4CCC(CN5CCCN(c6cccc(-c7cnc8[nH]cc(CC(F)F)c8c7Cl)c6)C5=O)CC4)ccc3C2=O)C(=O)N1 (stereo not drawn) [Example 14]	90%	FLT3 Dmax ([1]; protein degradation): 95%; DC50 ([1]; protein degradation, read-out: FLT3 DC50): 11 nM; Dmax [5, 13]: 95%
> 10000 nM	–	–	2.1 nM	27.7 nM	–	13.4 nM	21.8 nM	CCc1c[nH]c2ncc(-c3cccc(N4CCCN(CCN5CC=C(c6ccc7c(c6)C(=O)N(C6CCC(=O)NC6=O)C7=O)CC5)C4=O)c3)c(Cl)c12 (stereo not drawn) [Example 5, 5-(1-(2-(3-(3-(4-chloro-3-ethyl-1H-pyrrolo [2,3-b]pyridin-5-yl)phenyl)-2-oxotetrahydropyrimidin-1 (2H)-yl)ethyl)-1,2,3,6-tetrahydropyridin-4-yl)-2-(2,6-dioxopiperidin-3-yl) isoindoline-1,3-dione]	65%	DC50 ([2]; protein degradation, human PBMC, class symbol, read-out: HPK1 DC50 (nM)/Dmax (%)): > 10000 nM; DC50 [5, 15]: > 10000 nM
> 10000 nM	173 nM	75%	68 nM	4 nM	–	–	–	CCc1c[nH]c2ncc(-c3cccc(N4CCCN(CCN5CC(c6ccc7c(c6)C(=O)N(C6CCC(=O)NC6=O)C7)C5)C4=O)c3)c(Cl)c12 (stereo not drawn) [Example 1]	20%	DC50 [5, 15]: > 10000 nM
–	–	–	–	13.6 nM	–	5.8 nM	50.8 nM	CCc1c[nH]c2ncc(-c3cccc(N4CCCN(CCN5CCC(c6ccc7c(c6)C(=O)N(C6CCC(=O)NC6=O)C7=O)CC5)C4=O)c3)c(Cl)c12 (stereo not drawn) [Example 3, 5-(1-(2-(3-(3-(4-chloro-3-ethyl-1H-pyrrolo [2,3-b]pyridin-5-yl)phenyl)-2-oxotetrahydropyrimidin-1 (2H)-yl)ethyl)piperidin-4-yl)-2-(2,6-dioxopiperidin-3-yl) isoindoline-1,3-dione]	–	–
–	–	–	–	–	–	34.3 nM	–	O=C1CCC(N2Cc3cc(N4CCC(CN5CCCN(c6cccc(-c7cnc8[nH]cc(C9CC9)c8c7Cl)c6)C5=O)CC4)ccc3C2=O)C(=O)N1 (stereo not drawn) [Example 12, 3-[5-(4-{[3-(3-{4-chloro-3-cyclopropyl-1H-pyrrolo [2,3-b]pyridin-3-yl}phenyl)-2-oxo-1,3-diazinan-1-yl]methyl}piperidin-1-yl)-1-oxo-3H-isoindol-2-yl]piperidine-2,6-dione]	–	–

SMILES	DC50 [1, 8]	DC50 [2, 9]	Dmax [2, 10]	DC50 ([3]; read-out: MEK 1/2 DC50)	IC50 [4, 11]	DC50 [5, 12]	IC50 [6]	IC50 [7]	MEK 1/2 Dmax [3]	also measured
O=C1CCC(N2C(=O)c3cc(F)c(N4CCC(CCN5CCCN(c6cccc(-c7cnc8[nH]cc(C9CC9)c8c7Cl)c6)C5=O)CC4)cc3C2=O)C(=O)N1 (stereo not drawn) [Example 9, 5-(4-(2-(3-(3-(4-chloro-3-cyclopropyl-1H-pyrrolo [2,3-b]pyridin-5-yl)phenyl)-2-oxotetrahydropyrimidin-1 (2H)-yl)ethyl)piperidin-1-yl)-2-(2,6-dioxopiperidin-3-yl)-6-fluoroisoindoline-1,3-dione]	–	294 nM	–	–	36.5 nM	> 1000 nM	62.9 nM	131 nM	–	FLT3 Dmax ([1]; protein degradation): 60%; DC50 ([1]; read-out: FLT3 DC50, protein degradation): 100 nM; Dmax [2]: 50%; DC50 [3, 14]: > 10000 nM; Dmax [5]: 50%
CCc1c[nH]c2ncc(-c3cccc(N4CCCN(CC5CCN(c6ccc7c(c6)C(=O)N(C6CCC(=O)N(C)C6=O)C7=O)CC5)C4=O)c3)c(Cl)c12 (stereo not drawn) [Example 10, 5-(4-((3-(3-(4-chloro-3-ethyl-1H-pyrrolo [2,3-b]pyridin-5-yl)phenyl)-2-oxotetrahydropyrimidin-1 (2H)-yl)methyl)piperidin-1-yl)-2-(1-methyl-2,6-dioxopiperidin-3-yl) isoindoline-1,3-dione]	–	–	–	–	7.4 nM	–	30.7 nM	34.8 nM	–	–
